Data on ten compounds can be found in ChEMBL document CHEMBL1201862, “PubChem BioAssay data set” (2004).

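Each compound was tested at five concentrations against cells in 96-well plates for 48 hours. GI50 = concentration required for 50% inhibition of growth.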 Activity calls are given as the source filed them. No stated cut-off is given here; in the data, active = GI50 up to about 1.1 µM and inactive = higher.

Test systems include HCT-116; MDA-N; OVCAR-5; COLO 205; MDA-MB-231; MOLT-4; SW-620; NCI-H460; SK-OV-3; EKVX; M14; SNB-19; ACHN; HCT-15; OVCAR-4; UO-31; PC-3; SN12C; DU-145; T47D.
What all share (test): DTP human tumour cell line panel, 48 h

Take `COc1cc(/C=C2\CCc3cc(OC)c(OC)cc3C2=O)cc(OC)c1`: the GI50 in the assay on HCT-116 is 3.81 µM (inactive); in the assay on MDA-N, 1.45 µM (inactive); with OVCAR-5, 24.2 µM (inactive); with COLO 205, 3.28 µM (inactive); with MDA-MB-231 it was 12.9 µM (inactive); with MOLT-4, 12.8 µM (inactive). Further, the GI50 was 6.19 µM (inactive) with SW-620; 5.41 µM (inactive) in the assay with NCI-H460; 14.2 µM (inactive) with SK-OV-3; 24.3 µM (inactive) in the assay with EKVX; 5.47 µM (inactive) in the assay on M14; > 28.6 µM (inactive) with SNB-19. The GI50 with ACHN is 30.3 µM (inactive); in the assay on HCT-15, 3.62 µM; in the assay on OVCAR-4 it was 21.4 µM (inactive); with UO-31, 20.5 µM (inactive); in the assay with PC-3 it was 8.55 µM (inactive); with SN12C it was 5 µM (inactive). Further, the GI50 in the assay on DU-145 was 9.98 µM (inactive); in the assay on T47D, 5.9 µM (inactive).

As to `CC1=CC(=O)CC(C)(C)C1/C=C/C(C)=C/C=C/C(C)=C/C=C/C=C(C)/C=C/C=C(C)/C=C/C1C(C)=CC(=O)CC1(C)C` (stereo unspecified), the GI50 with HCT-116 is 20.2 µM (inactive); with MDA-N, 35.1 µM (inactive); in the assay on OVCAR-5, 78.5 µM (inactive); in the assay with MDA-MB-231, > 100 µM (inactive); in the assay with MOLT-4, 50.1 µM (inactive); in the assay with SW-620 it was 23.2 µM (inactive). For the same compound, the GI50 is 86.1 µM (inactive) in the assay on NCI-H460; > 100 µM (inactive) in the assay on SK-OV-3; 92.9 µM (inactive) in the assay on EKVX; 40.4 µM (inactive) in the assay with M14; 30 µM (inactive) in the assay with ACHN; 27 µM with HCT-15. Besides, the GI50 was 41.1 µM (inactive) with OVCAR-4; 67.5 µM (inactive) in the assay on UO-31; 41.1 µM (inactive) in the assay on PC-3; > 100 µM (inactive) with DU-145; > 100 µM (inactive) in the assay with T47D.

In the case of `COc1cccc(/N=C/c2cc(OC)c(OC)c(OC)c2)c1`, the GI50 in the assay with HCT-116 was > 100 µM (inactive); in the assay with MDA-N it was 25.8 µM (inactive); in the assay with OVCAR-5 it was > 53.2 µM (inactive); with COLO 205, 17.8 µM (inactive); in the assay with MDA-MB-231, > 100 µM (inactive); in the assay on MOLT-4, > 72.1 µM (inactive). Also, the GI50 with SW-620 was > 100 µM (inactive); with NCI-H460 it was 64.9 µM (inactive); in the assay with SK-OV-3, > 100 µM (inactive); with EKVX, > 86.7 µM (inactive); in the assay with M14, 36.2 µM (inactive); with ACHN, 20.8 µM (inactive). The 50% growth inhibitory concentration (GI50) with HCT-15 was 56.1 µM; in the assay on OVCAR-4, > 79.6 µM (inactive); with UO-31, > 23 µM (inactive); in the assay with PC-3 it was > 100 µM (inactive); in the assay on SN12C it was > 100 µM (inactive); in the assay with DU-145, > 100 µM (inactive). Also, the GI50 with T47D is 64.3 µM (inactive).

Turning to `Cn1c(=O)c2c(nc3n(CC(O)CCl)c(=O)ccn23)n(C)c1=O` (stereo unspecified), the GI50 in the assay on HCT-116 was 18.2 µM (inactive); with MDA-N it was 35.2 µM (inactive); with OVCAR-5 it was > 100 µM (inactive); in the assay on COLO 205 it was 36.8 µM (inactive); with MDA-MB-231 it was 31.3 µM (inactive); with MOLT-4 it was 6.17 µM (inactive). The GI50 in the assay on SW-620 is 46.8 µM (inactive); in the assay with NCI-H460, 29.9 µM (inactive); with SK-OV-3, 45.1 µM (inactive); with EKVX it was 42.9 µM (inactive); with M14, 52.7 µM (inactive); with SNB-19, 60 µM (inactive). Also, the GI50 is 15.4 µM (inactive) in the assay on ACHN; 34.9 µM with HCT-15; 61.8 µM (inactive) with OVCAR-4; 37.5 µM (inactive) in the assay on UO-31; > 100 µM (inactive) in the assay with PC-3; 18.3 µM (inactive) with SN12C. In addition, the GI50 with DU-145 is 28.8 µM (inactive); with T47D, 35.7 µM (inactive).

Consider `C=C1CN=C(Nc2ccc(F)cc2F)S1`, for which the GI50 in the assay with HCT-116 is > 100 µM (inactive); with MDA-N, > 100 µM (inactive); in the assay on OVCAR-5, > 100 µM (inactive); in the assay with COLO 205, > 100 µM (inactive); with MDA-MB-231, > 100 µM (inactive); with MOLT-4, 31.7 µM (inactive). Also, the GI50 in the assay on SW-620, in the assay with NCI-H460, in the assay with SK-OV-3, in the assay with EKVX, with SNB-19 and in the assay on ACHN was > 100 µM (inactive) each time. In addition, the 50% growth inhibitory concentration (GI50) in the assay with HCT-15 is above 100 µM; with OVCAR-4, > 100 µM (inactive); in the assay with UO-31 it was > 100 µM (inactive); in the assay with PC-3 it was > 100 µM (inactive); in the assay on SN12C, > 100 µM (inactive); in the assay with DU-145, > 100 µM (inactive). The GI50 with T47D is > 100 µM (inactive).

Regarding `COC(=O)c1cc(O)c(O)c(O)c1-c1c(O)c(O)c(O)c(SC[C@H](NC(=O)OCc2ccccc2)C(=O)OCc2ccccc2)c1C(=O)OC`, the GI50 is 17.3 µM (inactive) in the assay with HCT-116; 19.8 µM (inactive) in the assay with MDA-N; 33.9 µM (inactive) in the assay with OVCAR-5; 22.6 µM (inactive) in the assay with COLO 205; 16.7 µM (inactive) in the assay on MDA-MB-231; 17.6 µM (inactive) in the assay with MOLT-4. Besides, the GI50 in the assay with SW-620 is 23.8 µM (inactive); with NCI-H460 it was 29.2 µM (inactive); in the assay on SK-OV-3, 41.9 µM (inactive); in the assay on EKVX, 19.7 µM (inactive); with M14, 17.9 µM (inactive); in the assay on SNB-19, 30.8 µM (inactive). Further, the GI50 with ACHN is 22.5 µM (inactive); in the assay with HCT-15 it was 27.5 µM; in the assay on OVCAR-4, 26.5 µM (inactive); in the assay on PC-3, 22.6 µM (inactive); in the assay on SN12C, 19.4 µM (inactive); with DU-145 it was 39.2 µM (inactive). The GI50 with T47D was 32.4 µM (inactive).

Consider `C=C(C)[C@@]1(O)CCC[C@H]1NC(=O)OC(C)(C)C`, for which the GI50 with HCT-116, in the assay with MDA-N, in the assay with OVCAR-5, in the assay with COLO 205, in the assay on MDA-MB-231 and in the assay on SW-620 was > 100 µM (inactive) in each case. In addition, the GI50 in the assay with NCI-H460, with SK-OV-3, with EKVX, in the assay on M14, with SNB-19 and in the assay on ACHN was > 100 µM (inactive) throughout. Further, the GI50 in the assay on HCT-15 is above 100 µM; in the assay with OVCAR-4, > 100 µM (inactive); in the assay with UO-31 it was > 100 µM (inactive); in the assay on PC-3, > 100 µM (inactive); with SN12C, > 100 µM (inactive); with DU-145, > 100 µM (inactive). The GI50 with T47D is > 100 µM (inactive).

Regarding `CC(=N\N=C\c1ccccn1)/C(C)=N/N=C(C)/C(C)=N/N=C/c1ccccn1`, the GI50 in the assay on HCT-116, in the assay on MDA-N, in the assay with OVCAR-5, in the assay with COLO 205, in the assay with MDA-MB-231 and in the assay with SW-620 was > 100 µM (inactive) in each case. Also, the GI50 in the assay with NCI-H460, in the assay on SK-OV-3, in the assay with EKVX, in the assay on M14, in the assay with SNB-19 and with ACHN was > 100 µM (inactive) throughout. The GI50 is 71.3 µM in the assay on HCT-15; > 100 µM (inactive) in the assay with OVCAR-4; > 100 µM (inactive) in the assay on UO-31; > 100 µM (inactive) in the assay on PC-3; > 100 µM (inactive) with SN12C; > 100 µM (inactive) with DU-145. Also, in the assay on T47D, the GI50 is > 100 µM (inactive).

Take `CC1(C)COC(c2cccc(C(O)c3ccc(Cl)cc3)c2)=N1` (stereo unspecified): the GI50 in the assay on HCT-116 was 18.1 µM (inactive); with MDA-N it was 24.8 µM (inactive); in the assay on OVCAR-5, 17.9 µM (inactive); in the assay on COLO 205, 18 µM (inactive); with MDA-MB-231, 29.9 µM (inactive); with MOLT-4 it was 12.1 µM (inactive). Further, the GI50 is 28.9 µM (inactive) in the assay with SW-620; 29.4 µM (inactive) with NCI-H460; 26.4 µM (inactive) in the assay with SK-OV-3; 35.4 µM (inactive) in the assay with EKVX; 19.9 µM (inactive) in the assay with M14; 32.6 µM (inactive) in the assay with SNB-19. In addition, the GI50 was 33.7 µM (inactive) in the assay on ACHN; 56.8 µM (inactive) in the assay with OVCAR-4; 17.1 µM (inactive) with UO-31; 16.6 µM (inactive) in the assay with PC-3; 26.9 µM (inactive) in the assay on SN12C; 58.2 µM (inactive) in the assay with DU-145. Besides, the GI50 with T47D is 36.3 µM (inactive).

Turning to `COc1cc(/C=C\c2ccc(SC)cc2)cc(OC)c1OC`, the GI50 is < 0.0158 µM (active) in the assay on HCT-116; < 0.01 µM (active) in the assay with MDA-N; 1.15 µM (inactive) in the assay with OVCAR-5; 0.0271 µM (active) in the assay with COLO 205; 0.0698 µM (active) in the assay on MDA-MB-231; 0.0281 µM (active) in the assay with MOLT-4. For the same compound, the concentration for 50% growth inhibition (GI50) is < 0.01 µM (active) with SW-620; 0.0171 µM (active) with NCI-H460; 0.0141 µM (active) in the assay on SK-OV-3; 6.97 µM (inactive) in the assay on EKVX; 0.0182 µM (active) in the assay with M14; 0.0247 µM (active) in the assay with SNB-19. In addition, the GI50 in the assay on ACHN was 0.467 µM (active); in the assay with HCT-15 it was 0.0329 µM; in the assay on OVCAR-4, 10.7 µM (inactive); with UO-31, 0.104 µM (active); in the assay with PC-3 it was < 0.01 µM (active); in the assay on SN12C it was 0.0667 µM (active). Besides, the GI50 was 0.043 µM (active) with DU-145 and 19.7 µM (inactive) in the assay on T47D.

Broadly, the GI50 is the concentration at which growth is held to half of that of the control.
